Source: patent publication EP3325465B1, “PESTICIDALLY ACTIVE PYRAZOLE DERIVATIVES” (Syngenta Participations AG, priority 2015, dated 2017)
Like-named read-outs stand apart in the source and are kept apart here.

Legend:
Type in all cases: in vivo
[1] = test system: Diabrotica balteata, (Corn root worm); assay: Diabrotica balteata maize sprout spray test, L2 larvae; settings: 96 h
Excerpt: (§1) The pesticidal/insecticidal properties of the compounds according to embodiments 1 or 2 can be illustrated via the following tests: Spodoptera littoralis (Egyptian cotton leaf worm) • Cotton leaf discs were placed onto agar in 24-well microtiter plates and sprayed with aqueous test solutions prepared from 10'000 ppm DMSO stock solutions. After drying the leaf discs were infested with five L1 larvae. […] Plutella xylostella (Diamond back moth): 24-well microtiter plates with artificial diet were treated with aqueous test solutions prepared from 10'000 ppm DMSO stock solutions by pipetting. After drying, the plates were infested with L2 larvae (10 to 15 per well). The samples were assessed for mortality and growth inhibition in comparison to untreated samples 5 days after infestation. […] Diabrotica balteata, (Corn root worm) • Maize sprouts placed onto an agar layer in 24-well microtiter plates were treated with aqueous test solutions prepared from 10'000 ppm DMSO stock solutions by spraying. After drying, the plates were infested with L2 larvae (6 to 10 per well). […] Thrips tabaci (Onion thrips): Sunflower leaf discs were placed on agar in 24-well microtiter plates and sprayed with aqueous test solutions prepared from 10'000 ppm DMSO stock solutions. After drying the leaf discs were infested with a thrips population of mixed ages. The samples were assessed for mortality 6 days after infestation. […] Tetranychus urticae (Two-spotted spider mite): Bean leaf discs on agar in 24-well microtiter plates were sprayed with aqueous test solutions prepared from 10'000 ppm DMSO stock solutions. After drying the leaf discs were infested with a mite population of mixed ages. The samples were assessed for mortality on mixed population (mobile stages) 8 days after infestation. […] Euschistus heros (Neotropical Brown Stink Bug): • Two weeks old soybean plants were sprayed in a turn table spray chamber with the diluted spray solutions. After drying 2 soybean seeds were added and plants were infested with 10 N2 nymphs of the neotropical brown stink bug Euschistus heros in plastic test boxes. The samples were assessed for mortality in comparison to untreated samples 5 days after infestation. • The following compounds gave at least 80% mortality of Euschistus heros at an application rate of 12.5 ppm: Compounds 3 , 4 , 8 , 39 , 43 , 44 , 46 , 75 , 76 , 77 , 78 , 79 , 80 , 81 , 82 , 88 , 90 , 93 and 95 . Myzus persicae (Green peach aphid): Sunflower leaf discs were placed on agar in a 24-well microtiter plate and sprayed with test solutions at an application rate of 200 ppm. After drying, the leaf discs were infested with an aphid population of mixed ages. After an incubation period of 6 DAT, samples were checked for mortality. The following compounds gave at least 50% mortality of Myzus persicae: Compounds 3 , 4 , 8 , 43 , 44 , 75 , 76 , 77 , 80 , 81 , 90 and 92 . Myzus persicae (Green peach aphid): • Test compounds were applied by pipette into 24 well plates and mixed with Sucrose solution. Application rate: 12.5ppm. The plates were closed with a stretched parafilm. A plastic stencil with 24 holes is placed onto the plate and infested pea seedlings were placed directly on the Parafilm. The infested plate is closed with a gel blotting paper and another plastic stencil and then turned upside down. […]

[2] = test system: Plutella xylostella (Diamond back moth); assay: Plutella xylostella artificial diet test, L2 larvae; settings: 120 h, application rate of 200 ppm, mortality and growth inhibition 5 days after infestation
Excerpt: as §1

[3] = test system: Spodoptera littoralis (Egyptian cotton leaf worm); assay: Spodoptera littoralis cotton leaf disc spray test, L1 larvae; settings: foliar, 72 h
Excerpt: as §1

[4] = test system: Thrips tabaci (Onion thrips); assay: Thrips tabaci sunflower leaf disc spray test; settings: foliar, 144 h, application rate of 200 ppm, mortality 6 days after infestation, mixed ages
Excerpt: as §1

[5] = test system: Tetranychus urticae (Two-spotted spider mite); assay: Tetranychus urticae bean leaf disc spray test; settings: foliar, 192 h, application rate of 200 ppm, mortality on mixed population (mobile stages) 8 days after infestation
Excerpt: as §1

[6] = application rate of 200 ppm, 4 days after infestation, L2 larvae, read-out: mortality
[7] = application rate of 200 ppm, 3 days after infestation, L1 larvae, read-out: mortality

Cn1nc(C(F)(F)C(F)(F)F)c(C(F)(F)F)c1-c1noc(-c2ccc(Cl)c(C(=O)NC3CC3)c2)n1 [Compound 9, 2-chloro-N-cyclopropyl-5-[3-[2-methyl-5-(1,1 ,2,2,2-pentafluoroethyl)-4-(trifluoromethyl)pyrazol-3-yl]-1,2,4-oxadiazol-5-yl]benzamide]
≥ 80%: mortality at 200 ppm [1, 6]

Cn1nc(C(F)(F)C(F)(F)F)c(C(F)(F)F)c1-c1nc(-c2ccc(Cl)c(C(=O)NC3CC3)c2)no1 [Compound 21, 2-chloro-N-cyclopropyl-5-[5-[2-methyl-5-(1,1,2,2,2-pentafluoroethyl)-4-(trifluoromethyl)pyrazol-3-yl]-1,2,4-oxadiazol-3-yl]benzamide]
≥ 80%: pest or weed control at 200 ppm [2]

Cn1nc(C(F)(F)C(F)(F)F)c(C(F)(F)F)c1-c1ncn(-c2ccc(Cl)c(C(=O)NC3CC3)c2)n1 [Compound 35, 2-chloro-N-cyclopropyl-5-[3-[2-methyl-5-(1,1,2,2,2-pentafluoroethyl)-4-(trifluoromethyl)pyrazol-3-yl]-1,2,4-triazol-1-yl]benzamide]
≥ 80%: mortality at 200 ppm [3, 7] | pest or weed control at 200 ppm [2]

Cn1nc(-c2c(C(F)(F)F)c(C(F)(F)C(F)(F)F)nn2C)cc1-c1ccc(Cl)c(C(=O)NC2CC2)c1 [Compound 41, 2-chloro-N-cyclopropyl-5-[2-methyl-5-[2-methyl-5-(1,1,2,2,2-pentafluoroethyl)-4-(trifluoromethyl)pyrazol-3-yl]pyrazol-3-yl]benzamide]
≥ 80%: mortality at 200 ppm [3, 7] | pest or weed control at 200 ppm [2] | mortality at 200 ppm [1, 6] | pest or weed control at 200 ppm [4] | pest or weed control at 200 ppm [5]

Cn1nc(C(F)(F)C(F)(F)F)c(C(F)(F)F)c1-c1ncc(-c2ccc(Cl)c(C(=O)NC3CC3)c2)s1 [Compound 47, 2-chloro-N-cyclopropyl-5-[2-[2-methyl-5-(1,1 ,2,2,2-pentafluoroethyl)-4-(trifluoromethyl)pyrazol-3-yl]thiazol-5-yl]benzamide]
≥ 80%: mortality at 200 ppm [3, 7] | pest or weed control at 200 ppm [2] | mortality at 200 ppm [1, 6]

Cn1nc(C(F)(F)C(F)(F)F)c(C(F)(F)F)c1-c1ncc(-c2ccc(Cl)c(C(=O)NC3(C#N)CC3)c2)s1 [Compound 48, 2-chloro-N-(1-cyanocyclopropyl)-5-[2-[2-methyl-5-(1,1,2,2,2-pentafluoroethyl)-4-(trifluoromethyl)pyrazol-3-yl]thiazol-5-yl]benzamide]
≥ 80%: mortality at 200 ppm [3, 7] | pest or weed control at 200 ppm [2] | mortality at 200 ppm [1, 6] | pest or weed control at 200 ppm [4] | pest or weed control at 200 ppm [5]

Cn1nc(C(F)(F)C(F)(F)F)c(C(F)(F)F)c1-c1csc(-c2ccc(Cl)c(C(=O)NC3CC3)c2)n1 [Compound 49, 2-chloro-N-cyclopropyl-5-[4-[2-methyl-5-(1,1 ,2,2,2-pentafluoroethyl)-4-(trifluoromethyl)pyrazol-3-yl]thiazol-2-yl]benzamide]
≥ 80%: mortality at 200 ppm [3, 7] | pest or weed control at 200 ppm [2] | mortality at 200 ppm [1, 6]

Cn1nc(C(F)(F)C(F)(F)F)c(C(F)(F)F)c1-c1nc(-c2ccc(Cl)c(C(=O)NC3CC3)c2)cs1 [Compound 53, 2-chloro-N-cyclopropyl-5-[2-[2-methyl-5-(1,1 ,2,2,2-pentafluoroethyl)-4-(trifluoromethyl)pyrazol-3-yl]thiazol-4-yl]benzamide]
≥ 80%: pest or weed control at 200 ppm [2]

Cn1nc(C(F)(F)C(F)(F)F)c(C(F)(F)F)c1-c1nc(-c2ccc(Cl)c(C(=O)NC3(C#N)CC3)c2)cs1 [Compound 54, 2-chloro-N-(1-cyanocyclopropyl)-5-[2-[2-methyl-5-(1,1,2,2,2-pentafluoroethyl)-4-(trifluoromethyl)pyrazol-3-yl]thiazol-4-yl]benzamide]
≥ 80%: mortality at 200 ppm [3] | pest or weed control at 200 ppm [2] | mortality at 200 ppm [1] | pest or weed control at 200 ppm [4] | pest or weed control at 200 ppm [5]

Cn1nc(C(F)(F)C(F)(F)F)c(C(F)(F)F)c1-c1c[nH]c(-c2ccc(Cl)c(C(=O)NC3(C#N)CC3)c2)n1 [Compound 70, 2-chloro-N-(1-cyanocyclopropyl)-5-[4-[2-methyl-5-(1,1,2,2,2-pentafluoroethyl)-4-(trifluoromethyl)pyrazol-3-yl]-1H-imidazol-2-yl]benzamide]
≥ 80%: pest or weed control at 200 ppm [2]

Cn1nc(C(F)(F)C(F)(F)F)c(C(F)(F)F)c1-c1cc(-c2ccc(Cl)c(C(=O)NC3CC3)c2)[nH]n1 [Compound 73, 2-chloro-N-cyclopropyl-5-[3-[2-methyl-5-(1,1,2,2,2-pentafluoroethyl)-4-(trifluoromethyl)pyrazol-3-yl]-1H-pyrazol-5-yl]benzamide]
≥ 80%: mortality at 200 ppm [3, 7] | pest or weed control at 200 ppm [5]

Cn1nc(C(F)(F)C(F)(F)F)c(C(F)(F)F)c1-c1cc(-c2ccc(Cl)c(C(=O)NCCC(F)(F)F)c2)on1 [Compound 83, 2-chloro-5-[3-[2-methyl-5-(1,1,2,2,2-pentafluoroethyl)-4-(trifluoromethyl)pyrazol-3-yl]isoxazol-5-yl]-N-(3,3,3-trifluoropropyl)benzamide]
≥ 80%: mortality at 200 ppm [3, 7] | pest or weed control at 200 ppm [2] | mortality at 200 ppm [1, 6] | pest or weed control at 200 ppm [4]

Cn1nc(C(F)(F)C(F)(F)F)c(C(F)(F)F)c1-c1cc(-c2ccc(Cl)c(C(=O)NCC=C(Cl)Cl)c2)on1 [Compound 84, 2-chloro-N-(3,3-dichloroallyl)-5-[3-[2-methyl-5-(1,1,2,2,2-pentafluoroethyl)-4-(trifluoromethyl)pyrazol-3-yl]isoxazol-5-yl]benzamide]
≥ 80%: pest or weed control at 200 ppm [2] | mortality at 200 ppm [1, 6] | pest or weed control at 200 ppm [4] | pest or weed control at 200 ppm [5]

Cn1nc(C(F)(F)C(F)(F)F)c(C(F)(F)F)c1-c1cc(-c2ccc(Cl)c(C(=O)Nc3ccc(Cl)cc3)c2)on1 [Compound 85, 2-chloro-N-(4-chlorophenyl)-5-[3-[2-methyl-5-(1,1,2,2,2-pentafluoroethyl)-4-(trifluoromethyl)pyrazol-3-yl]isoxazol-5-yl]benzamide]
≥ 80%: pest or weed control at 200 ppm [5]

C=C(F)CNC(=O)c1cc(-c2cc(-c3c(C(F)(F)F)c(C(F)(F)C(F)(F)F)nn3C)no2)ccc1Cl [Compound 86, 2-ch loro-N-(2-fluoroallyl)-5-[3-[2-methyl-5-(1,1,2,2,2-pentafluoroethyl)-4-(trifluoromethyl)pyrazol-3-yl]isoxazol-5-yl]benzamide]
≥ 80%: mortality at 200 ppm [3, 7] | pest or weed control at 200 ppm [2] | mortality at 200 ppm [1, 6] | pest or weed control at 200 ppm [4] | pest or weed control at 200 ppm [5]

CC(C)CNC(=O)c1cc(-c2cc(-c3c(C(F)(F)F)c(C(F)(F)C(F)(F)F)nn3C)no2)ccc1Cl [Compound 87, 2-chloro-N-isobutyl-5-[3-[2-methyl-5-(1,1,2,2,2-pentafluoroethyl)-4-(trifluoromethyl)pyrazol-3-yl]isoxazol-5-yl]benzamide]
≥ 80%: mortality at 200 ppm [3, 7] | pest or weed control at 200 ppm [2] | mortality at 200 ppm [1, 6] | pest or weed control at 200 ppm [4] | pest or weed control at 200 ppm [5]

Cn1nc(C(F)(F)C(F)(F)F)c(C(F)(F)F)c1-c1cc(-c2ccc(Cl)c(C(=O)NCc3ccccc3)c2)on1 [Compound 91, N-benzyl-2-chloro-5-[3-[2-methyl-5-(1,1,2,2,2-pentafluoroethyl)-4-(trifluoromethyl)pyrazol-3-yl]isoxazol-5-yl]benzamide]
≥ 80%: pest or weed control at 200 ppm [2] | mortality at 200 ppm [1, 6] | pest or weed control at 200 ppm [4] | pest or weed control at 200 ppm [5]
